Experimental data: patent EP0139005A1, “ANTITUMOR COMPOSITION, METHOD FOR TREATING TUMOR, AND USE OF THE COMPOSITION FOR TREATING TUMOR” (Yoshitomi Pharmaceutical Industries, Ltd., priority 1982, dated 1984)

Assays:
L1210 leukemia = L1210 leukemia implanted intraperitoneally, oral or subcutaneous treatment, survival (Experimental Example 4); format: in vivo, female CDF1 mice; conditions: for Average Survival Time / Life-Prolongation Ratio (%): once daily for seven days
Method: The life-prolongation ratio was calculated by the following scheme (the same scheme is applied to the subsequent experimental examples).
Life-prolongation Ratio [formula] T : Average survival days of the treated group
C : Average survival days of the control group
Animals survived over 30 days or longer were estimated as 30-day survivors, and the cases where T/C equals to or greater than 125% were regarded as effective.
A plurality of groups each consisting of five female CDF1 mice (7-8 weeks old) were respectively implanted intraperitoneally with 10 cells of L1210 leukemia. After the next day of the implantation, the test animals were administered orally or subcutaneously once daily for seven days with Y-6430 or ESCC dissolved in physiological saline, and the average survival days and life-prolongation ratios in each group were calculated.
All the test animals died of tumor within 30 days.

AH44 hepatoma = AH44 hepatoma implanted intraperitoneally, single dose, survival (Experimental Example 5); format: in vivo, male Donryu rats; conditions: once, three days after implantation
Text: A plurality of groups each consisting of six male Donryu rats (7-8 weeks old) were respectively implanted intraperitoneally with 10^6 cells of AH44 hepatoma. Three days after the implantation, each test animal was once administered orally or intraperitoneally with Y-6430.

Ehrlich carcinoma = Ehrlich carcinoma implanted subcutaneously, tumor weight (Experimental Example 7); format: in vivo, male ICR mice; conditions: once daily for seven days, 24 hours after final administration, control 399.5 mg
Method: A plurality of groups each consisting of six male ICR mice (7-8 weeks old) were respectively implanted subcutaneously with […] Ehrlich carcinoma. After 24 hours, Y-6430 dissolved in physiological saline was administered intraperitoneally once daily for seven days. 24 hours after the final administration, the test animals were killed by ether anesthesia, and the carcinoma of each test animal was exercised and weighed.

[1] = Acute toxicity in mice (Experimental Example 11); conditions: mouse, in vivo, ip; administered intraperitoneally, male ddn mice
Method: Acute toxicity value when Y-6430 was administered intraperitoneally to male ddn mice was 1,500 mgjkg or more. 'Acute toxicity values when AH-44 carcinoma cells were implanted peritoneally and orally to Donryu rats were both 1,000 mg/kg or more.

CCOC(=O)[C@@H](N)CSC(=O)NC.Cl [Y-6430, S-methylcarbamoyl-L-cysteine ethyl ester hydrochloride]
Average Survival Time (L1210 leukemia; 100 mg/kg/day s.c.): 8.2 days | Life-Prolongation Ratio (%) (L1210 leukemia; 100 mg/kg/day s.c.): 103% | Average Survival Time (L1210 leukemia; 250 mg/kg/day p.o.): 9.4 days | Life-Prolongation Ratio (%) (L1210 leukemia; 250 mg/kg/day p.o.): 115% | Average Survival Time (L1210 leukemia; 250 mg/kg/day s.c.): 9.2 days | Life-Prolongation Ratio (%) (L1210 leukemia; 250 mg/kg/day s.c.): 115% | Average Survival Time (L1210 leukemia; 500 mg/kg/day p.o.): 11.4 days | Life-Prolongation Ratio (%) (L1210 leukemia; 500 mg/kg/day p.o.): 139% | Average Survival Time (L1210 leukemia; 500 mg/kg/day s.c.): 10.8 days | Life-Prolongation Ratio (%) (L1210 leukemia; 500 mg/kg/day s.c.): 135% | Average Survival Time (L1210 leukemia; 1,000 mg/kg/day p.o.): 13.8 days | Life-Prolongation Ratio (%) (L1210 leukemia; 1,000 mg/kg/day p.o.): 168% | effectiveness against L1210 leukemia (L1210 leukemia; oral and subcutaneous administration): effective | 30-day Survivors (AH44 hepatoma; 500 mg/kg p.o.): 0/6 | Average Survival Time (AH44 hepatoma; 500 mg/kg p.o.): 11.2 days | 30-day Survivors (AH44 hepatoma; 1,000 mg/kg i.p.): 1/6 | Average Survival Time (AH44 hepatoma; 1,000 mg/kg i.p.): 14.7 days | 30-day Survivors (AH44 hepatoma; 1,000 mg/kg p.o.): 0/6 | Average Survival Time (AH44 hepatoma; 1,000 mg/kg p.o.): 10.8 days | Average Tumor Weight (Ehrlich carcinoma; 50 mg/kg/day i.p.): 194.0 mg | Average Tumor Weight (Ehrlich carcinoma; 100 mg/kg/day i.p.): 146.6 mg | LD50 [1]: ≥ 1500 mg/kg
